Legend:
Type in all cases: in vivo
Conditions in all cases: 312 h, rate 250 g/ha, evaluated after 13 days, 100=total damage to plant, 0=no damage to plant
[1] = system: Alopecurus myosuroides (ALOMY); assay: Pre-emergence herbicidal activity, glasshouse pot test
Procedure, shortened: (§1)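 Pre-emergence spray applied one day after sowing in standard soil, using an aqueous dilution of an acetone/water (50:50) formulation with 0.5% Tween 20. Evaluation on a 0–100 damage scale after 13 days of glasshouse growth.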

Avena fatua (AVEFA) [2] = assay: as above
Procedure, shortened: as §1

[3] = system: Echinochloa crus-galli (ECHCG); assay: as above
Procedure, shortened: as §1

Lolium perenne (LOLPE) [4] = assay: as above
Procedure, shortened: as §1

[5] = system: Alopecurus myosuroides (ALOMY); assay: Post-emergence herbicidal activity, glasshouse pot test
Procedure, shortened: (§2)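 Post-emergence spray at 8 d after sowing, then 13 d glasshouse growth before scoring percent damage (0–100).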

Avena fatua (AVEFA) [6] = assay: as above
Procedure, shortened: as §2

[7] = system: Echinochloa crus-galli (ECHCG); assay: as above
Procedure, shortened: as §2

Lolium perenne (LOLPE) [8] = assay: as above
Procedure, shortened: as §2

Compound	pest or weed control at 250 g/ha [1] [%]	pest or weed control at 250 g/ha (Avena fatua (AVEFA) [2]) [%]	pest or weed control at 250 g/ha [3] [%]	pest or weed control at 250 g/ha (Lolium perenne (LOLPE) [4]) [%]	pest or weed control at 250 g/ha [5] [%]	pest or weed control at 250 g/ha (Avena fatua (AVEFA) [6]) [%]	pest or weed control at 250 g/ha [7] [%]	pest or weed control at 250 g/ha (Lolium perenne (LOLPE) [8]) [%]
CCc1ccc(Oc2ccc(Br)cc2)cc1C1=C(O)[C@H]2[C@@H](C1=O)[C@@H]1CC[C@H]2O1 [Compound A-4]	80	90	100	90	100	100	100	90
CCc1ccc(Oc2ccc(C(F)(F)F)cn2)cc1C1=C(O)CCC1=O [Compound A-60]	80	70	100	80	90	80	100	80
CCc1ccc(Oc2ccccc2F)cc1C1=C(O)[C@H]2[C@@H](C1=O)[C@@H]1CC[C@H]2O1 [Compound A-5]	30	0	80	40	30	10	80	30
CCc1ccc(Oc2ccc(F)cc2)cc1C1=C(O)[C@H]2[C@@H](C1=O)[C@@H]1CC[C@H]2O1 [Compound A-46]	80	60	100	80	80	60	100	80
CCc1ccc(Oc2ccc(F)cc2)cc1C1=C(O)C2C(C1=O)[C@H]1CC[C@@H]2CC1 (stereo partly drawn) [Compound A-30]	30	20	80	70	60	20	100	10
CCc1ccc(Oc2ccc(C(F)(F)F)cn2)cc1C1=C(O)C2C(C1=O)[C@H]1CC[C@@H]2CC1 (stereo partly drawn) [Compound A-87]	80	30	100	90	90	100	100	90
CCc1ccc(Oc2ccc(C(F)(F)F)cc2[N+](=O)[O-])cc1C1=C(O)CCC1=O [Compound A-76]	20	0	100	50	50	80	80	30
CCc1ccc(Oc2ncc(C(F)(F)F)cc2F)cc1C1=C(O)C2C(C1=O)[C@H]1CC[C@@H]2CC1 (stereo partly drawn) [Compound A-89]	50	70	100	100	100	100	100	100
CCc1ccc(Oc2ccc(OC(F)(F)F)cc2)cc1C1=C(O)[C@H]2[C@@H](C1=O)[C@@H]1CC[C@H]2O1 [Compound A-50]	100	100	100	100	100	100	100	100

Source: patent publication US8895474B2, “Herbicidally active cyclopentanediones and derivatives thereof, and their use in controlling weeds” (Syngenta Limited, priority 2009, dated 2014)
